Source: ChEMBL document CHEMBL1158667, “Agelasines H and I, 9-methyladenine-containing diterpenoids from an Agelas sponge” (J Nat Prod, 1998)
The source made the active and inactive calls. The calls are words filed in the database; no cut-off is given here.

How the values were obtained:
Type in all cases: functional, organism-based
Staphylococcus aureus [1] = test: Antimicrobial activity against Staphylococcus aureus ATCC 6538 at 200 ug/mL
Saccharomyces cerevisiae [2] = test: Antimicrobial activity against Saccharomyces cerevisiae ATCC 18824 at 10 ug/mL
Pseudomonas aeruginosa [3] = test: Antimicrobial activity against Pseudomonas aeruginosa ATCC 15442 at 200 ug/mL
Aspergillus niger [4] = test: Antimicrobial activity against Aspergillus niger ATCC 9642 at 200 ug/mL
Saccharomyces cerevisiae [5] = test: Antimicrobial activity against Saccharomyces cerevisiae ATCC 18824 at 200 ug/mL
Aspergillus niger [6] = test: Antimicrobial activity against Aspergillus niger ATCC 9642 at 10 ug/mL
Staphylococcus aureus [7] = test: Antimicrobial activity against Staphylococcus aureus ATCC 6538 at 10 ug/mL
Pseudomonas aeruginosa [8] = test: Antimicrobial activity against Pseudomonas aeruginosa ATCC 15442 at 1 ug/mL
Aspergillus niger [9] = test: Antimicrobial activity against Aspergillus niger ATCC 9642 at 1 ug/mL
Pseudomonas aeruginosa [10] = test: Antimicrobial activity against Pseudomonas aeruginosa ATCC 15442 at 10 ug/mL
Aspergillus niger [11] = test: Antimicrobial activity against Aspergillus niger ATCC 9642 at 100 ug/mL
Staphylococcus aureus [12] = test: Antimicrobial activity against Staphylococcus aureus ATCC 6538 at 100 ug/mL
Saccharomyces cerevisiae [13] = test: Antimicrobial activity against Saccharomyces cerevisiae ATCC 18824 at 1 ug/mL
Staphylococcus aureus [14] = test: Antimicrobial activity against Staphylococcus aureus ATCC 6538 at 1 ug/mL
Pseudomonas aeruginosa [15] = test: Antimicrobial activity against Pseudomonas aeruginosa ATCC 15442 at 100 ug/mL
Saccharomyces cerevisiae [16] = test: Antimicrobial activity against Saccharomyces cerevisiae ATCC 18824 at 100 ug/mL

Structure (SMILES) | Activity (Staphylococcus aureus [1]) | Activity (Saccharomyces cerevisiae [2]) | Activity (Pseudomonas aeruginosa [3]) | Activity (Aspergillus niger [4]) | Activity (Saccharomyces cerevisiae [5]) | Activity (Aspergillus niger [6]) | Activity (Staphylococcus aureus [7]) | Activity (Pseudomonas aeruginosa [8]) | Activity (Aspergillus niger [9]) | Activity (Pseudomonas aeruginosa [10]) | Activity (Aspergillus niger [11]) | Activity (Staphylococcus aureus [12]) | Activity (Saccharomyces cerevisiae [13]) | Activity (Staphylococcus aureus [14]) | Activity (Pseudomonas aeruginosa [15]) | Activity (Saccharomyces cerevisiae [16])
CC1=CCC[C@@H]2[C@@](C)(CC/C(C)=C/Cn3c[n+](C)c4ncnc(N)c43)[C@H](C)CC[C@@]12C | inactive | Active | inactive | inactive | inactive | – | – | – | – | – | – | – | – | – | – | –
C/C(=C\Cn1c[n+](C)c2ncnc(N)c21)CC[C@]1(C)[C@@H](C)CC[C@@]2(C)C(CO)=CCC[C@@H]12 | inactive | inactive | inactive | inactive | inactive | inactive | inactive | inactive | inactive | inactive | inactive | inactive | inactive | inactive | inactive | inactive
C/C(=C\Cn1c[n+](C)c2ncnc(N)c21)CC[C@]1(C)[C@@H](C)CC[C@@]2(C)C(COC(=O)c3ccc[nH]3)=CCC[C@@H]12 | inactive | Active | inactive | inactive | inactive | – | – | – | – | – | – | – | – | – | – | –
CC1=CCC[C@H](C)[C@@]1(C)CC/C(C)=C/CC/C(C)=C/Cn1c[n+](C)c2ncnc(N)c21 | – | Active | – | – | – | – | – | – | – | – | Active | – | – | – | – | –
C=C1[C@H](O)CC[C@H]2[C@](C)(CC/C(C)=C/Cn3c[n+](C)c4ncnc(N)c43)[C@@H](C)CC[C@@]12C | – | – | – | – | Active | – | – | – | – | – | – | – | – | – | – | –
CC1=CCC[C@H]2[C@](C)(CC/C(C)=C/Cn3c[n+](C)c4ncnc(N)c43)[C@@H](C)CC[C@@]12C | inactive | inactive | inactive | inactive | inactive | inactive | inactive | inactive | inactive | inactive | inactive | inactive | inactive | inactive | inactive | inactive
